{
  "source": "patent US11020360B2",
  "about": "“Methods, compounds, compositions and vehicles for delivering 3-amino-1-propanesulfonic acid” (Bellus Health, Inc., priority 2006, dated 2021)",
  "key": {"human hepatocyte (HepG2)": {"tested_on": "human hepatocyte (HepG2)", "assay": "Incubation of 3APS in human hepatocyte (HepG2) culture media", "format": "in vitro ADME", "conditions": "after incubation of 3APS in HepG2 culture media", "procedure": "(§1) In another in vitro model employing organotypic hippocampal slice culture, the conversion of 3APS to 2-carboxyethanesulfonic acid was time-dependent. More than 60% of 3APS was converted to 2-carboxyethanesulfonic acid after 3-day incubation in the culture media. 2-carboxyethanesulfonic acid was also detected after incubation of 3APS in human hepatocyte (HepG2) culture media."}, "[1]": {"tested_on": "organotypic hippocampal slice culture", "assay": "In vitro metabolism of 3APS in organotypic hippocampal slice culture", "format": "in vitro ADME", "conditions": "3-day incubation in the culture media", "procedure": "as §1"}, "[2]": {"assay": "Metabolic profiling of 14C-3APS in dogs", "format": "in vivo, male Beagle dogs", "conditions": "Dog plasma", "procedure": "(§2) Three single dose studies were conducted in mice, rats and dogs to determine the metabolic profile of ^14C-3APS in plasma, urine and feces. In the first study, twenty-seven male CD-1 mice received a single dose of 100 mg/kg (20 μCi/animal) of ^14C-3APS by oral gavage. Blood samples (3 animals/time point) were collected for 12 hr following drug administration while urine and feces (3 animals/time point) samples were collected for 96 hr. In the second study, eight male Sprague-Dawley rats received a single dose of 100 mg/kg (50 μCi/animal) of ^14C-3APS by oral gavage while in the third study, three male Beagle dogs received a single dose of 100 mg/kg (30 μCi/kg) of ^14C-3APS by oral gavage. For the rat and dog studies, blood samples were collected for 24 hr following drug administration while urine and feces samples were collected for 72 hr. All samples were analyzed for total radioactivity using appropriate sample preparation procedures and scintillation counting. Plasma and urine samples were also analyzed for 3APS and 3APS metabolites (2-carboxyethanesulfonic acid, 3-hydroxy-1-propanesulfonic acid and 3-acetylamino-1-propanesulfonic acid) concentrations using qualified HPLC and MS/MS methods."}, "[3]": {"assay": "Metabolic profiling of 14C-3APS in mice", "format": "in vivo, male CD-1 mice", "conditions": "Mouse plasma", "procedure": "as §2"}, "[4]": {"assay": "Previous metabolic stability studies of 3APS", "format": "in vitro ADME", "from_the_text": "Those studies include: 3APS metabolic stability in pooled human hepatocytes, human, rat and dog liver microsomes, human intestinal microflora, pooled human liver cytosol, and human arylamine N-acetyltransferase (See Examples 4 and 5)."}, "[5]": {"assay": "PK brain and plasma levels of oral Compound A2 and 3-APS in mice", "format": "in vivo", "conditions": "oral 0.18 mmol/kg", "procedure": "Compounds A2 and 3-aminopropanesulfonic acid were tested for pharmacokinetic parameters in mice. Parmacokinetic parameters (Cmax, Tmax, T½, AUC) are evaluated for 3APS after administration of a molar equivalent of each compound. Blood samples (approximately 1 ml) and brain samples are collected from each of 3 animals at time points 5, 15, 30 minutes, 1, 2, 4, 6, 12, and 24 hours. […] A 2-fold increase in plasma concentration (Cmax) of 3-APS was observed when orally administering Compound A2 compared to 3-APS."}, "[6]": {"assay": "Absorption, excretion and plasma kinetics of 14C-3APS in humans", "format": "in vivo, human", "from_the_text": "Following the identification of 3APS metabolites, plasma and urine samples from this human AME study were reanalyzed for 3APS and 3APS metabolite (2-carboxyethanesulfonic acid, 3-hydroxy-1-propanesulfonic acid and 3-acetylamino-1-propanesulfonic acid) concentrations using qualified HPLC and MS/MS methods to determine the metabolic profile of ^14C-3APS in human."}, "[7]": {"assay": "Metabolic profiling of 14C-3APS in rats", "format": "in vivo, male Sprague-Dawley rats", "procedure": "as §2"}, "[8]": {"assay": "Single oral and IV administration of 14C-3APS to rats", "format": "in vivo, male Sprague-Dawley rats", "conditions": "for AUC0-∞ / AUC(0-inf): 100 mg/kg 14C-3APS, rats, 100 mg/kg; for AUC(0-inf): male, Sprague-Dawley, rat, plasma", "procedure": "The purpose of this study was to investigate the absorption, metabolism and excretion profiles of ^14C-3APS following a single intravenous bolus and oral administration to rats. Thirty-six male Sprague-Dawley rats received a single 100 mg/kg (˜50 μCi/animal) dose of ^14C-3APS by an IV bolus injection (water or isotonic saline solution) and an additional 36 male rats received the same dose level by oral gavage (in water). Blood, urine, feces, brain and CSF samples were collected for up to 72 hr following dose administration. Plasma, urine, brain and CSF concentrations of 3APS and 2-carboxyethanesulfonic acid (3APS major metabolite) were measured using LC and MS/MS detection method. Plasma, urine, feces, brain and CSF samples were analyzed for total radioactivity using appropriate sample preparation procedures and scintillation counting."}, "[9]": {"assay": "Single oral, intravenous and portal administration of 3APS in rats", "format": "in vivo, male Sprague-Dawley rats", "procedure": "The purpose of this study was to compare the pharmacokinetic profile of 3APS following a single dose administration either orally, intravenously or into the portal vein to male Sprague-Dawley rats. The oral, intravenous and portal routes of administration were selected to determine the intestinal and hepatic first-pass effects in the rat. Three groups of 4 male Sprague-Dawley rats were assigned to receive a single dose of 250 mg/kg 3APS by different routes of administration. One group received 3APS as an IV bolus administration (in water or isotonic saline solution), one group by oral gavage (in water) and the last group via a catheter into the portal vein (in water or isotonic saline solution). Blood samples were collected for 24 hours following dose administration. Plasma concentrations of 3APS and 2-carboxyethanesulfonic acid (the major metabolite of 3APS) were determined using LC and MS/MS method."}, "[10]": {"conditions": "analyte after single oral 100 mg/kg 14C-3APS"}, "[11]": {"conditions": "male, Beagle, dog, plasma, po, 100 mg/kg, analyte after single oral 100 mg/kg 14C-3APS"}, "[12]": {"conditions": "male, CD-1, mouse, plasma, po, 100 mg/kg, analyte after single oral 100 mg/kg 14C-3APS"}, "[13]": {"conditions": "Rat plasma, analyte after single oral 100 mg/kg 14C-3APS"}, "[14]": {"conditions": "male, Sprague-Dawley, rat, plasma, po, 100 mg/kg, Rat plasma, analyte after single oral 100 mg/kg 14C-3APS"}},
  "note": "Several values for one entry are separate records, joined by “and”; a condition that tells them apart may be missing. Equal values may be shown once.",
  "data": [
    {"smiles": "NCCCS(=O)(=O)O", "note": "[Compound 3APS, 3-amino-1-propanesulfonic acid]", "values": [
      {"measurement": "formation of 2-carboxyethanesulfonic acid", "setting": "human hepatocyte (HepG2)", "value": "detected"},
      {"measurement": "3APS converted to 2-carboxyethanesulfonic acid", "setting": "[1]", "value": "More than 60%"},
      {"measurement": "AUC0-τ", "setting": "[2]; [10]", "value": 24.5, "unit": "µmol·min/mL"},
      {"measurement": "AUC∞", "setting": "[2]; [10]", "value": 25.3, "unit": "µmol·min/mL"},
      {"measurement": "T1/2", "setting": "[2]; analyte after single oral 100 mg/kg 14C-3APS, 100 mg/kg", "value": 5.04, "unit": "h"},
      {"measurement": "Tmax", "setting": "[2]; [11]", "value": "~0.5", "unit": "h"},
      {"measurement": "half-life", "setting": "[2]; [11]", "value": "~5", "unit": "h"},
      {"measurement": "Cmax", "setting": "[2]; male, Beagle, analyte (3APS or metabolite) after single oral 100 mg/kg 14C-3APS", "value": 250, "unit": "µM"},
      {"measurement": "AUC0-τ", "setting": "[3]; [10]", "value": 15.5, "unit": "µmol·min/mL"},
      {"measurement": "AUC∞", "setting": "[3]; [10]", "value": 15.7, "unit": "µmol·min/mL"},
      {"measurement": "Tmax", "setting": "[3]; [12]", "value": "~0.5", "unit": "h"},
      {"measurement": "half-life", "setting": "[3]; [12]", "value": "~2", "unit": "h"},
      {"measurement": "Cmax", "setting": "[3]; male, CD-1, analyte (3APS or metabolite) after single oral 100 mg/kg 14C-3APS", "value": 97.7, "unit": "µM"},
      {"measurement": "in vitro metabolism", "setting": "[4]", "value": "no in vitro metabolism"},
      {"measurement": "Brain AUC", "setting": "[5]; 3-APS analysed", "value": "BLLQ"},
      {"measurement": "Brain Cmax", "setting": "[5]; 3-APS analysed", "value": "BLLQ"},
      {"measurement": "Brain concentration of 3-APS", "setting": "[5]", "value": "could not be quantified"},
      {"measurement": "% of total radioactivity in plasma based on AUC0-τ", "setting": "[6]; healthy subjects, oral 14C-3APS", "value": "approximately 48%"},
      {"measurement": "% of total amount of radioactivity excreted in urine", "setting": "[6]; human urine", "value": "approximately 15%"},
      {"measurement": "AUC0-τ", "setting": "[7]; [13]", "value": 26.7, "unit": "µmol·min/mL"},
      {"measurement": "AUC∞", "setting": "[7]; [13]", "value": 27.6, "unit": "µmol·min/mL"},
      {"measurement": "T1/2", "setting": "[7]; Rat plasma, analyte after single oral 100 mg/kg 14C-3APS, 100 mg/kg", "value": 6.43, "unit": "h"},
      {"measurement": "% of Total Radioactivity, Urine", "setting": "[7]; Rat, amount excreted, single oral 100 mg/kg 14C-3APS", "value": 59, "unit": "%"},
      {"measurement": "Tmax", "setting": "[7]; [14]", "value": "~0.5", "unit": "h"},
      {"measurement": "half-life", "setting": "[7]; [14]", "value": "~6", "unit": "h"},
      {"measurement": "Cmax", "setting": "[7]; male, Sprague-Dawley, Rat plasma, analyte (3APS or metabolite) after single oral 100 mg/kg 14C-3APS", "value": 218, "unit": "µM"},
      {"measurement": "AUC0-∞", "setting": "[8]; IV, individual animals 1001-1004", "value": "1420 µM·h and 1591 µM·h and 1147 µM·h"},
      {"measurement": "% of total radioactivity (AUC0-∞ analyte/AUC total radioactivity)", "setting": "[8]; IV, Mean", "value": 89, "unit": "%"},
      {"measurement": "AUC0-∞", "setting": "[8]; PO, individual animals 3001-3004", "value": "539 µM·h and 407 µM·h and 471 µM·h"},
      {"measurement": "% of total radioactivity (AUC0-∞ analyte/AUC total radioactivity)", "setting": "[8]; PO, Mean", "value": "about 68%"},
      {"measurement": "AUC(0-inf)", "setting": "[8]; iv, Mean", "value": 1420, "unit": "µM·h"},
      {"measurement": "AUC(0-inf)", "setting": "[8]; iv, individual animals 1001-1004", "value": 1530, "unit": "µM·h"},
      {"measurement": "AUC(0-inf)", "setting": "[8]; po, Mean", "value": 507, "unit": "µM·h"},
      {"measurement": "AUC(0-inf)", "setting": "[8]; po, individual animals 3001-3004", "value": 610, "unit": "µM·h"},
      {"measurement": "metabolism of 3APS associated with hepatic first-pass", "setting": "[9]; hepatoportal versus intravenous exposure, 250 mg/kg", "value": 24, "unit": "%"},
      {"measurement": "bioavailability based on the AUC∞", "setting": "[9]; oral 250 mg/kg", "value": "about 38%"},
      {"measurement": "metabolism of 3APS associated with intestinal first-pass", "setting": "[9]; oral versus hepatoportal exposure, 250 mg/kg", "value": 43, "unit": "%"}
    ]}
  ]
}
